Literature values as cited in patent US20090022794A1, “Topiramate Tablet Formulation” (priority 2005, published 2009).
In brackets after ≈: the same amount, converted by molar mass.

Experiments:
[1] = relative humidity as high as 90%

moisture picked up [1]	solubility in alkaline solutions, acetone, dimethylsulfoxide and ethanol (alkaline solutions, acetone, dimethylsulfoxide, ethanol)	solubility in water (water)	Structure (SMILES)
less than 1%	–	–	OC[C@@H](O)[C@@H](O)[C@H](O)[C@H](O)CO [Mannitol]
–	soluble	9800 µg/mL (≈ 28.9 mM)	CC1(C)O[C@@H]2[C@@H](CO[C@@]3(COS(N)(=O)=O)OC(C)(C)O[C@@H]23)O1 [Topiramate, 2,3:4,5-Bis-O-(1-methylethylidene)-β-D-fructopyranose sulfamate]
